Data as given in the supplement of paper PMC11208160.

Assay: recombinant barcode read abundance after kanamycin selection (control-corrected) (log10(CPM+1)); higher = more efficient recombination; sequences stand for … in AGTGCAGAGAAAATCGGCCAGTTTTCTCTGCCTGCAGTCCGCATGCCGT…AGATTTATGCAGCGGACTGCCTTTCTCCCAAAGTGATAAACCGGACAGTATCATGGACCGGTTTTCCCGGTAATCCGTATTTGCAAGGTTGGTTTCACT; site = the 11-nt target
Summary of the method: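 Targets were screened in pooled form in E. coli against IS621 bridge RNA target-binding loops. Recombination efficiency is based on barcode counts at recombinant junctions in counts per million, averaged and corrected for the control. Numbers are shown as log10(CPM+1), with duplicate plates on chloramphenicol/ampicillin LB agar (control) or chloramphenicol/ampicillin/kanamycin with 0.1 mM IPTG.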
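Further: IS621 recombinase and bridge RNA in Escherichia coli cells.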

“CCACATCCTTGGGTTCTAACCTGTTGCCT (site GCACACCCTAG)” and “CCACCGTCTTGGGTTCTAACCTGTTGCCT (site CCACAGTCTAG)” are within 0.2 log units of each other in “recombinant barcode read abundance (log10)” value: 0.109 for the first, 0.171 for the second.

“CCACCGTCTTGGGTTCTAACCTGTTGCCT (site CCACCGTCTAG)” and “CCACCGTCTTGGGTTCTAACCTGTTGCCT (site CCACGGTCTAG)” are within 0.2 log units of each other in “recombinant barcode read abundance (log10)” value: 0.156 for the first, 0.177 for the second.

“CCACCGTCTTGGGTTCTAACCTGTTGCCT (site CCACTGTCTAG)” and “CCACGGTCTTGGGTTCTAACCTGTTGCCT (site CCACAGTCTAG)” are within 0.2 log units of each other in “recombinant barcode read abundance (log10)” value: 0.175 for the first, 0.161 for the second.

Compared with “CCACGGTCTTGGGTTCTAACCTGTTGCCT (site CCACCGTCTAG)”, “CCACGGTCTTGGGTTCTAACCTGTTGCCT (site CCACGGTCTAG)” is higher in “recombinant barcode read abundance (log10)” value: 0.0249 for the first, 1.1 for the second.

“CCACGGTCTTGGGTTCTAACCTGTTGCCT (site CCACTGTCTAG)” and “CCAGAAGCTTGGGTTCTAACCTGTTGCCT (site CCAGAAGCTAG)” are within 0.2 log units of each other in “recombinant barcode read abundance (log10)” value: 0.033 for the first, 0.179 for the second.

“CCAGAAGCTTGGGTTCTAACCTGTTGCCT (site CCAGCAGCTAG)” and “CCAGAAGCTTGGGTTCTAACCTGTTGCCT (site CCAGGAGCTAG)” are within 0.2 log units of each other in “recombinant barcode read abundance (log10)” value: 0.222 for the first, 0.407 for the second.

First: CCAGAAGCTTGGGTTCTAACCTGTTGCCT (site CCAGTAGCTAG)
Second: CCAGGACCTTGGGTTCTAACCTGTTGCCT (site CCAGGACCTAG)
The “recombinant barcode read abundance (log10)” value of the first is lower: 0.0645 for the first, 2.2 for the second.

“CCAGGACCTTGGGTTCTAACCTGTTGCCT (site CGAGGACCTAG)” and “CCAGGAGCTTGGGTTCTAACCTGTTGCCT (site CCAGAAGCTAG)” are within 0.2 log units of each other in “recombinant barcode read abundance (log10)” value: 0.291 for the first, 0.338 for the second.

Compared with “CCAGGAGCTTGGGTTCTAACCTGTTGCCT (site CCAGCAGCTAG)”, “CCAGGAGCTTGGGTTCTAACCTGTTGCCT (site CCAGGAGCTAG)” is higher in “recombinant barcode read abundance (log10)” value: 0.103 for the first, 0.545 for the second.

“CCAGGAGCTTGGGTTCTAACCTGTTGCCT (site CCAGTAGCTAG)” and “CCAGGTACTTGGGTTCTAACCTGTTGCCT (site ACAGGTACTAG)” are within 0.2 log units of each other in “recombinant barcode read abundance (log10)” value: 0.109 for the first, 0.272 for the second.

First: CCAGGTACTTGGGTTCTAACCTGTTGCCT (site CCAGGTACTAG)
Second: CCAGGTACTTGGGTTCTAACCTGTTGCCT (site GCAGGTACTAG)
The “recombinant barcode read abundance (log10)” value of the first is higher: 0.701 for the first, 0.117 for the second.

“CCAGGTACTTGGGTTCTAACCTGTTGCCT (site TCAGGTACTAG)” and “CCAGGTCCTTGGGTTCTAACCTGTTGCAT (site CCAGGTCCTAC)” are within 0.2 log units of each other in “recombinant barcode read abundance (log10)” value: 0.182 for the first, 0.111 for the second.

Going from “CCAGGTCCTTGGGTTCTAACCTGTTGCAT (site CCAGGTCCTAT)” to “CCAGGTGCTTGGGTTCTAACCTGTTGCGG (site CCAGGTGCTCC)”, the “recombinant barcode read abundance (log10)” value falls from 2.25 to 1.62.

First: CCAGGTGCTTGGGTTCTAACCTGTTGCGG (site GGCTTGACTAG)
Second: CCAGTAACTTGGGTTCTAACCTGTTGCCT (site CCAGTAACTAG)
The “recombinant barcode read abundance (log10)” value of the first is lower: 0.0921 for the first, 0.659 for the second.

“CCAGTAACTTGGGTTCTAACCTGTTGCCT (site CCAGTCACTAG)” and “CCAGTAACTTGGGTTCTAACCTGTTGCCT (site CCAGTGACTAG)” are within 0.2 log units of each other in “recombinant barcode read abundance (log10)” value: 0.137 for the first, 0.082 for the second.

First: CCAGTAACTTGGGTTCTAACCTGTTGCCT (site CCAGTTACTAG)
Second: CCAGTAGCTTGGGTTCTAACCTGTTGCCT (site CCAGAAGCTAG)
The “recombinant barcode read abundance (log10)” value of the first is lower: 0.0883 for the first, 0.382 for the second.

“CCAGTAGCTTGGGTTCTAACCTGTTGCCT (site CCAGCAGCTAG)” and “CCAGTAGCTTGGGTTCTAACCTGTTGCCT (site CCAGGAGCTAG)” are within 0.2 log units of each other in “recombinant barcode read abundance (log10)” value: 0.161 for the first, 0.193 for the second.

“CCAGTAGCTTGGGTTCTAACCTGTTGCCT (site CCAGTAGCTAG)” and “CCAGTCACTTGGGTTCTAACCTGTTGCCT (site CCAGTAACTAG)” are within 0.2 log units of each other in “recombinant barcode read abundance (log10)” value: 0.52 for the first, 0.377 for the second.

Going from “CCAGTCACTTGGGTTCTAACCTGTTGCCT (site CCAGTCACTAG)” to “CCAGTCACTTGGGTTCTAACCTGTTGCCT (site CCAGTGACTAG)”, the “recombinant barcode read abundance (log10)” value falls from 1.88 to 0.176.

Going from “CCAGTCACTTGGGTTCTAACCTGTTGCCT (site CCAGTTACTAG)” to “CCAGTGACTTGGGTTCTAACCTGTTGCCT (site CCAGTAACTAG)”, the “recombinant barcode read abundance (log10)” value rises from 0.19 to 0.931.

Compared with “CCAGTGACTTGGGTTCTAACCTGTTGCCT (site CCAGTCACTAG)”, “CCAGTGACTTGGGTTCTAACCTGTTGCCT (site CCAGTGACTAG)” is higher in “recombinant barcode read abundance (log10)” value: 0.299 for the first, 1.38 for the second.

“CCAGTGACTTGGGTTCTAACCTGTTGCCT (site CCAGTTACTAG)” and “CCATGGACTTGGGTTCTAACCTGTTGCCT (site CCAAGGACTAG)” are within 0.2 log units of each other in “recombinant barcode read abundance (log10)” value: 0.254 for the first, 0.202 for the second.

First: CCATGGACTTGGGTTCTAACCTGTTGCCT (site CCACGGACTAG)
Second: CCATGGACTTGGGTTCTAACCTGTTGCCT (site CCAGGGACTAG)
The “recombinant barcode read abundance (log10)” value of the first is higher: 0.516 for the first, 0.0382 for the second.

“CCATGGACTTGGGTTCTAACCTGTTGCCT (site CCATGGACTAG)” and “CCGAAGACTTGGGTTCTAACCTGTTGCCT (site CCGAAGACTAG)” are within 0.2 log units of each other in “recombinant barcode read abundance (log10)” value: 0.252 for the first, 0.112 for the second.

First: CCGAAGACTTGGGTTCTAACCTGTTGCCT (site TCGAAGACTTG)
Second: CCGACTCCTTGGGTTCTAACCTGTTGCCT (site CCGAATCCTAG)
The “recombinant barcode read abundance (log10)” value of the first is higher: 0.492 for the first, 0.0273 for the second.

“CCGACTCCTTGGGTTCTAACCTGTTGCCT (site CCGACTCCTAG)” and “CCGACTCCTTGGGTTCTAACCTGTTGCCT (site CCGAGTCCTAG)” are within 0.2 log units of each other in “recombinant barcode read abundance (log10)” value: 0.13 for the first, 0 for the second.

“CCGACTCCTTGGGTTCTAACCTGTTGCCT (site CCGATTCCTAG)” and “CCGATTCCTTGGGTTCTAACCTGTTGCCT (site CCGAATCCTAG)” are within 0.2 log units of each other in “recombinant barcode read abundance (log10)” value: 0.102 for the first, 0.153 for the second.

“CCGATTCCTTGGGTTCTAACCTGTTGCCT (site CCGACTCCTAG)” and “CCGATTCCTTGGGTTCTAACCTGTTGCCT (site CCGAGTCCTAG)” are within 0.2 log units of each other in “recombinant barcode read abundance (log10)” value: 0.171 for the first, 0.0319 for the second.

“CCGATTCCTTGGGTTCTAACCTGTTGCCT (site CCGATTCCTAG)” and “CCGCAGCCTTGGGTTCTAACCTGTTGCCT (site CCGAAGCCTAG)” are within 0.2 log units of each other in “recombinant barcode read abundance (log10)” value: 0.217 for the first, 0.0264 for the second.

Compared with “CCGCAGCCTTGGGTTCTAACCTGTTGCCT (site CCGCAGCCTAG)”, “CCGCAGCCTTGGGTTCTAACCTGTTGCCT (site CCGGAGCCTAG)” is lower in “recombinant barcode read abundance (log10)” value: 1.59 for the first, 0.177 for the second.

“CCGCAGCCTTGGGTTCTAACCTGTTGCCT (site CCGTAGCCTAG)” and “CCGCCAGCTTGGGTTCTAACCTGTTGCCT (site CCGCCAGCTAG)” are within 0.2 log units of each other in “recombinant barcode read abundance (log10)” value: 0.0447 for the first, 0.171 for the second.

“CCGCCAGCTTGGGTTCTAACCTGTTGCCT (site CCGCCCGCTAG)” and “CCGCCAGCTTGGGTTCTAACCTGTTGCCT (site CCGCCGGCTAG)” are within 0.2 log units of each other in “recombinant barcode read abundance (log10)” value: 0.0231 for the first, 0.0999 for the second.

“CCGCCAGCTTGGGTTCTAACCTGTTGCCT (site CCGCCTGCTAG)” and “CCGCCCGCTTGGGTTCTAACCTGTTGCCT (site CCGCCAGCTAG)” are within 0.2 log units of each other in “recombinant barcode read abundance (log10)” value: 0.186 for the first, 0.00972 for the second.

Going from “CCGCCCGCTTGGGTTCTAACCTGTTGCCT (site CCGCCCGCTAG)” to “CCGCCCGCTTGGGTTCTAACCTGTTGCCT (site CCGCCGGCTAG)”, the “recombinant barcode read abundance (log10)” value falls from 0.473 to 0.083.

“CCGCCCGCTTGGGTTCTAACCTGTTGCCT (site CCGCCTGCTAG)” and “CCGCCCTCTTGGGTTCTAACCTGTTGCCT (site CAGCCCTCTAG)” are within 0.2 log units of each other in “recombinant barcode read abundance (log10)” value: 0.0828 for the first, 0.0642 for the second.

Going from “CCGCCCTCTTGGGTTCTAACCTGTTGCCT (site CCGCCCTCTAG)” to “CCGCCCTCTTGGGTTCTAACCTGTTGCCT (site CGGCCCTCTAG)”, the “recombinant barcode read abundance (log10)” value falls from 1.04 to 0.105.

First: CCGCCCTCTTGGGTTCTAACCTGTTGCCT (site CTGCCCTCTAG)
Second: CCGCCTCCTTGGGTTCTAACCTGTTGCGA (site CCGCCTCCTTC)
The “recombinant barcode read abundance (log10)” value of the first is lower: 0.0291 for the first, 0.616 for the second.

“CCGCCTCCTTGGGTTCTAACCTGTTGCGA (site CCGCGTCCTTA)” and “CCGCGCCCTTGGGTTCTAACCTGTTGCAT (site ACGCGCCCTGT)” are within 0.2 log units of each other in “recombinant barcode read abundance (log10)” value: 0.0484 for the first, 0.0166 for the second.

Going from “CCGCGCCCTTGGGTTCTAACCTGTTGCAT (site CCGCGCCCTAT)” to “CCGCGCTCTTGGGTTCTAACCTGTTGCCT (site CCGCGCACTAG)”, the “recombinant barcode read abundance (log10)” value falls from 0.504 to 0.106.

Compared with “CCGCGCTCTTGGGTTCTAACCTGTTGCCT (site CCGCGCTCTAG)”, “CCGCGCTCTTGGGTTCTAACCTGTTGCTG (site ACGAGCTCTCA)” is lower in “recombinant barcode read abundance (log10)” value: 0.641 for the first, 0 for the second.

Going from “CCGCGCTCTTGGGTTCTAACCTGTTGCTG (site CCGCGCTCTCA)” to “CCGCGGCCTTGGGTTCTAACCTGTTGCCT (site ACGCGGCCTAG)”, the “recombinant barcode read abundance (log10)” value falls from 0.379 to 0.0555.

Going from “CCGCGGCCTTGGGTTCTAACCTGTTGCCT (site CCGCGGCCTAG)” to “CCGCGGCCTTGGGTTCTAACCTGTTGCCT (site GCGCGGCCTAG)”, the “recombinant barcode read abundance (log10)” value falls from 0.459 to 0.0271.

“CCGCGGCCTTGGGTTCTAACCTGTTGCCT (site TCGCGGCCTAG)” and “CCGCTACCTTGGGTTCTAACCTGTTGCCT (site CAGCTACCTAG)” are within 0.2 log units of each other in “recombinant barcode read abundance (log10)” value: 0.0221 for the first, 0.109 for the second.
